Data reported in patent publication US20050175695A1 (priority 2003, published 2005).
Structures can show the parent of a compound that is named as a salt.

Assays:
[1] = both R and S isomer forms; cited from earlier work
[2] = pH-solubility behaviour of carvedilol free base; format: physicochemical; details: pH values encountered in the distal small intestine and colon
[3] = Aqueous solubility at 25° C. of carvedilol free base and three salts (Table 13); format: physicochemical
Description: Aliquots were taken out at various time-point, filtered through 0.45 μm Acrodisc GHP filter.

solubility [2] [mg per ml] | Compound | alpha elimination phase [1] | aqueous solubility compared with free base [3]
≤ 0.1 | COc1ccccc1OCCNCC(O)COc1cccc2[nH]c3ccccc3c12 (stereo not drawn) [Carvedilol Free Base] | about 1.5 hours | –
– | COc1ccccc1OCCNCC(O)COc1cccc2[nH]c3ccccc3c12 (stereo not drawn) [HBr salt, Carvedilol HBr] | – | much better aqueous solubility than the free base
